Measured values published in PMC4999309, “Structures of TorsinA and its disease-mutant complexed with an activator reveal the molecular basis for primary dystonia” (eLife, 2016).

Target: T1, TorsinAEQ-LULL1 (TorsinA-ATP-LULL1) (Homo sapiens, UniProt O14656+Q8NFQ8, O14656:E171Q)
T1 construct: gene TOR1A; TorsinA 51-332 (E171Q ATP trap), N-terminal 10xHis-7xArg tag cut by 3C; untagged luminal domain LULL1 233-470; co-expressed in E. coli with alpaca nanobody VHH-BS2 (crystallisation chaperone); heterodimer plus nanobody
Experiment: X-ray crystal structure, […] Å
Assay type: binding
Settings: 2 mM ATP, pH 6.5; crystallised with nanobody VHH-BS2; ATP in Walker A/B nucleotide site with LULL1 Arg449 finger

## Nc1ncnc2c1ncn2[C@@H]1O[C@H](COP(=O)(O)OP(=O)(O)OP(=O)(O)O)[C@@H](O)[C@H]1O [ATP]
  X-ray crystal structure, 1.40 Å: An ATP molecule is bound in the manner characteristic of P-loop NTPases
